From PubChem BioAssay (NCI)
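Five compound concentrations were applied to cells in 96-well plates for 48 hours; endpoints were derived by simple linear interpolation of the resulting dose-response curve. TGI: concentration producing complete growth inhibition.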

Legend:
Assay in all cases: NCI-60 cell line screen, 48 h
OVCAR-8 ovarian = test system: OVCAR-8 ovarian
SNB-19 CNS = test system: SNB-19 CNS
CCRF-CEM leukemia = test system: CCRF-CEM leukemia
NCI/ADR-RES ovarian = test system: NCI/ADR-RES ovarian
BT-549 breast = test system: BT-549 breast
SF-295 CNS = test system: SF-295 CNS
K-562 leukemia = test system: K-562 leukemia
MALME-3M melanoma = test system: MALME-3M melanoma
HL-60(TB) leukemia = test system: HL-60(TB) leukemia
HOP-62 NSCLC = test system: HOP-62 NSCLC
SR leukemia = test system: SR leukemia
UACC-62 melanoma = test system: UACC-62 melanoma
NCI-H460 lung = test system: NCI-H460 lung
IGROV1 ovarian = test system: IGROV1 ovarian
HCT-116 colon = test system: HCT-116 colon
UACC-257 melanoma = test system: UACC-257 melanoma
SK-MEL-2 melanoma = test system: SK-MEL-2 melanoma
NCI-H522 lung = test system: NCI-H522 lung
OVCAR-3 ovarian = test system: OVCAR-3 ovarian
ACHN renal = test system: ACHN renal
SF-539 CNS = test system: SF-539 CNS
HS 578T breast = test system: HS 578T breast
RXF 393 renal = test system: RXF 393 renal
PC-3 prostate = test system: PC-3 prostate
UO-31 renal = test system: UO-31 renal
U251 CNS = test system: U251 CNS
RPMI-8226 leukemia = test system: RPMI-8226 leukemia
SNB-75 CNS = test system: SNB-75 CNS
T-47D breast = test system: T-47D breast
786-0 renal = test system: 786-0 renal
HCT-15 colon = test system: HCT-15 colon
CAKI-1 renal = test system: CAKI-1 renal
NCI-H226 lung = test system: NCI-H226 lung
HOP-92 NSCLC = test system: HOP-92 NSCLC
HCC-2998 colon = test system: HCC-2998 colon
EKVX NSCLC = test system: EKVX NSCLC
COLO 205 colon = test system: COLO 205 colon
SF-268 CNS = test system: SF-268 CNS
HT29 colon = test system: HT29 colon
MCF7 breast = test system: MCF7 breast
MDA-N = test system: MDA-N
OVCAR-4 ovarian = test system: OVCAR-4 ovarian
A498 renal = test system: A498 renal
MDA-MB-435 = test system: MDA-MB-435
A549 NSCLC = test system: A549 NSCLC
LOX IMVI melanoma = test system: LOX IMVI melanoma
SK-OV-3 ovarian = test system: SK-OV-3 ovarian
TK-10 renal = test system: TK-10 renal
DU-145 prostate = test system: DU-145 prostate
SK-MEL-28 melanoma = test system: SK-MEL-28 melanoma
M14 melanoma = test system: M14 melanoma
SW-620 colon = test system: SW-620 colon
SK-MEL-5 melanoma = test system: SK-MEL-5 melanoma
KM12 colon = test system: KM12 colon
OVCAR-5 ovarian = test system: OVCAR-5 ovarian
NCI-H23 lung = test system: NCI-H23 lung
SN12C renal = test system: SN12C renal
MOLT-4 leukemia = test system: MOLT-4 leukemia

`COC(=O)C1SC(N(C)c2ccccc2)=NC12c1ccccc1Nc1ccccc12` (stereo not drawn) showed a TGI (OVCAR-8 ovarian) of 67.6 µM, a TGI (SNB-19 CNS) of 66.1 µM and a TGI (CCRF-CEM leukemia) of 57.7 µM. The TGI (NCI/ADR-RES ovarian) was 65.4 µM, the TGI (BT-549 breast) was 45.1 µM and the TGI (SF-295 CNS) was 50.7 µM. The TGI (K-562 leukemia) was 47.7 µM, the TGI (MALME-3M melanoma) was 30.9 µM and the TGI (HL-60(TB) leukemia) was 37.5 µM. It also gave a TGI (HOP-62 NSCLC) greater than 100 µM, a TGI (SR leukemia) of 43.3 µM and a TGI (UACC-62 melanoma) of 32 µM. The TGI (NCI-H460 lung) was 27 µM, the TGI (IGROV1 ovarian) was 53.1 µM and the TGI (HCT-116 colon) was 53.5 µM. The TGI (UACC-257 melanoma) was 64 µM, the TGI (SK-MEL-2 melanoma) was 31.7 µM and the TGI (NCI-H522 lung) was 38.5 µM. For the same compound, the TGI (OVCAR-3 ovarian) was 34.1 µM, the TGI (ACHN renal) was greater than 100 µM and the TGI (SF-539 CNS) was 38.6 µM. The TGI (HS 578T breast) was 53 µM, the TGI (RXF 393 renal) was greater than 100 µM and the TGI (PC-3 prostate) was 53.9 µM. It also gave a TGI (UO-31 renal) of 52.3 µM, a TGI (U251 CNS) of 98.8 µM and a TGI (RPMI-8226 leukemia) of 12 µM. The TGI (SNB-75 CNS) was 84.7 µM, the TGI (T-47D breast) was 50 µM and the TGI (786-0 renal) was 94 µM. The TGI (HCT-15 colon) was 49.3 µM, the TGI (CAKI-1 renal) was 74.6 µM and the TGI (NCI-H226 lung) was 51.5 µM. The TGI (HOP-92 NSCLC) was 59.4 µM, the TGI (HCC-2998 colon) was 42.4 µM and the TGI (EKVX NSCLC) was 66.3 µM. The TGI (COLO 205 colon) was 30.7 µM, the TGI (SF-268 CNS) was 72.5 µM and the TGI (HT29 colon) was 62.2 µM. For the same compound, the TGI (MCF7 breast) was 81.9 µM, the TGI (MDA-N) was 57 µM and the TGI (OVCAR-4 ovarian) was 73.9 µM. For the same compound, the TGI (A498 renal) was 55.6 µM, the TGI (MDA-MB-435) was 40 µM and the TGI (A549 NSCLC) was 87.8 µM. For the same compound, the TGI (LOX IMVI melanoma) was 50.8 µM, the TGI (SK-OV-3 ovarian) was greater than 100 µM and the TGI (TK-10 renal) was 72.5 µM. The TGI (DU-145 prostate) was greater than 100 µM, the TGI (SK-MEL-28 melanoma) was 45.8 µM and the TGI (M14 melanoma) was 38.7 µM. The TGI (SW-620 colon) was greater than 100 µM, the TGI (SK-MEL-5 melanoma) was 26 µM and the TGI (KM12 colon) was 66.7 µM. The TGI (OVCAR-5 ovarian) was 55.2 µM, the TGI (NCI-H23 lung) was 35.9 µM and the TGI (SN12C renal) was 66.7 µM. For the same compound, the TGI (MOLT-4 leukemia) was 28.4 µM.
